# Results reported in the supplement of paper PMC10307832.
# Columns and labels:
# Assay in all cases: relative viability (nuclei count vs DMSO), 5 days (fraction); higher = more cells survive
# [1] = compound: CCN1C(=O)C2=CC(=C(N=C2N(C1=O)C3CC3)N)C(=O)N + CC(C)C[C@H](NC(=O)[C@H](Cc1ccccc1)NC(=O)c1cnccn1)B(O)O [Bortezomib] (partner 0.002 µM)
# How it was run: (§1)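 Each reported value is a median over duplicate plates. It expresses relative viability: treated-well nuclei count divided by vehicle-well nuclei count. Lung cancer cell lines in 1536-well plates were dosed by pin tool a day after seeding, alone with one drug or with a fixed anchor-drug dose plus five library-drug doses (not always all listed) in √10 steps, and nuclei were counted after 5 days.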
# [2] = compound: CCN1C(=O)C2=CC(=C(N=C2N(C1=O)C3CC3)N)C(=O)N + NC(=O)Nc1cc(-c2cccc(F)c2)sc1C(=O)N[C@H]1CCCNC1 [AZD7762] (partner 0.2 µM)
# How it was run: as §1
# [3] = compound: CCN1C(=O)C2=CC(=C(N=C2N(C1=O)C3CC3)N)C(=O)N + C[C@]1(O)C[C@@H](c2nc(-c3ccc4ccc(-c5ccccc5)nc4c3)c3c(N)nccn32)C1 [Linsitinib] (partner 1 µM)
# How it was run: as §1
# [4] = compound: CCN1C(=O)C2=CC(=C(N=C2N(C1=O)C3CC3)N)C(=O)N + Nc1ncn([C@H]2C[C@H](O)[C@@H](CO)O2)c(=O)n1 [Decitabine] (partner 2 µM)
# How it was run: as §1
# [5] = compound: CCN1C(=O)C2=CC(=C(N=C2N(C1=O)C3CC3)N)C(=O)N + N=C(N)NC(=N)NCCc1ccccc1 [Phenformin] (partner 250 µM)
# How it was run: as §1
Cell Line,relative viability ([1]; first compound 0.253 µM),relative viability ([1]; first compound 0.8 µM),relative viability ([1]; first compound 2.53 µM),relative viability ([1]; first compound 8 µM),relative viability ([2]; first compound 0.253 µM),relative viability ([2]; first compound 0.8 µM),relative viability ([2]; first compound 2.53 µM),relative viability ([2]; first compound 8 µM),relative viability ([3]; first compound 0.253 µM),relative viability ([3]; first compound 0.8 µM),relative viability ([3]; first compound 2.53 µM),relative viability ([3]; first compound 8 µM),relative viability ([4]; first compound 0.253 µM),relative viability ([4]; first compound 0.8 µM),relative viability ([4]; first compound 2.53 µM),relative viability ([4]; first compound 8 µM),relative viability ([5]; first compound 0.253 µM),relative viability ([5]; first compound 0.8 µM),relative viability ([5]; first compound 2.53 µM),relative viability ([5]; first compound 8 µM)
HCC-15,0.992,1.11,0.979,1,1.18,1.45,1.18,1.31,0.867,0.908,0.879,0.913,0.596,0.663,0.624,0.603,0.456,0.472,0.473,0.44
HCC-44,0.896,0.895,0.879,0.877,1.03,0.993,0.977,0.991,0.693,0.634,0.69,0.641,0.999,0.999,0.885,0.872,0.296,0.18,0.277,0.185
HCC-78,0.293,0.479,0.463,0.516,0.56,0.592,0.626,0.735,0.516,0.434,0.482,0.675,0.681,0.636,0.726,0.639,0.747,,0.75,0.685
HCC-366,1.03,1,1,0.997,0.395,0.312,0.41,0.231,0.726,0.65,0.623,0.6,0.294,0.346,0.341,0.284,,0.595,0.589,0.589
HCC-827,1.06,1.11,1.06,0.972,0.165,0.193,0.25,0.207,0.954,0.97,0.899,0.979,0.342,0.284,0.332,0.319,0.439,0.383,0.382,0.382
HOP-62,0.914,0.75,0.754,0.733,0.727,0.566,0.617,0.899,0.989,1.09,0.825,1.05,0.242,0.218,0.161,0.184,0.678,0.696,0.633,0.77
LC-2-ad,0.922,0.965,1.02,1.07,0.866,0.771,0.853,0.834,0.811,0.805,0.782,0.899,0.765,0.735,0.681,0.777,0.521,0.556,0.505,0.587
LCLC-97TM1,0.873,0.326,1.27,0.625,0.242,0.155,0.267,0.175,0.196,,,0.218,0.207,0.225,0.244,0.262,0.383,0.452,0.375,0.407
